For orientation: IC50 means the midpoint of a concentration-inhibition curve. A low value points to greater potency in that assay. A word on the pKa: it is the pH at which an ionisable group is half protonated.

Data on 13 molecules can be found in ChEMBL document CHEMBL1212844, “Synthesis and biological evaluation of naphthoquinone analogs as a novel class of proteasome inhibitors” (Bioorg Med Chem, 2010).

Data set [1] is described as follows: Inhibition of chymotrypsin like proteolytic activity of rabbit 26S proteasome. More on the design: species or system Oryctolagus cuniculus.
Data set [2] can be described thus: Inhibition of trypsin like proteolytic activity of rabbit 26S proteasome. Also on record: species or system Oryctolagus cuniculus.
Data set [3] is described as follows: Inhibition of PGPH activity of rabbit 26S proteasome. More on the design: species or system Oryctolagus cuniculus.
Data set [4] in a line: Inhibition of 26S proteasome-mediated chymotrypsin like proteolytic activity in human MCF7 cells. The format is cell-based.
Data set [5] can be described thus: Inhibition of calpain.
A short description of data set [6]: Dissociation constant, pKa of the compound. The format is physicochemical.

Take `COc1cc(NC2=C(Cl)C(=O)c3ccccc3C2=O)ccc1S(=O)(=O)Nc1ccccc1C`: the IC50 in data set [1] was determined as 13.7 µM; in data set [2] it was 24.3 µM; in data set [3] it was 30 µM.

With `O=C1C(Cl)=C(Nc2ccc(S(=O)(=O)Nc3ccccn3)cc2)C(=O)c2ccccc21`, the IC50 in data set [1] is 1 µM; in data set [2], 4.5 µM; in data set [3], 4.5 µM; in data set [4] it was 6 µM; in data set [5], over 30 µM.

`O=C1C(Cl)=C(Nc2ccc(S(=O)(=O)Nc3nccs3)cc2)C(=O)c2ccccc21`: the IC50 in data set [1] turned out to be 3.3 µM; in data set [2], 8.15 µM; in data set [3], 14.3 µM. The molecule also displayed a pKa in data set [6] of under 7.91.

For `Cc1noc(NS(=O)(=O)c2ccc(NC3=C(Cl)C(=O)c4ccccc4C3=O)cc2)c1C`, the IC50 in data set [1] was determined as 3.9 µM; in data set [2] it was 9.25 µM; in data set [3], 21.2 µM. In data set [6], this molecule returned a pKa of under 7.91.

With `Cc1nnc(NS(=O)(=O)c2ccc(NC3=C(Cl)C(=O)c4ccccc4C3=O)cc2)s1`, the values for the IC50 in data set [1], in data set [2] and in data set [3] were 6.4 µM, 10.7 µM and 13.4 µM, respectively. Moreover, the pKa in data set [6] was under 7.91.

Regarding `Cc1cc(NS(=O)(=O)c2ccc(NC3=C(Cl)C(=O)c4ccccc4C3=O)cc2)no1`, the concentration for half-maximal inhibition (IC50) in data set [1] was 11.2 µM; in data set [2] it was 13.2 µM; in data set [3], 16.7 µM. In data set [6], the pKa is under 7.91.

In the case of `COc1ccc(NS(=O)(=O)c2ccc(NC3=C(Cl)C(=O)c4ccccc4C3=O)cc2OC)cc1`, the IC50 in data set [1] worked out at 15.3 µM; in data set [2] it was 23.3 µM; in data set [3], 35 µM.

Regarding `O=C1C(Cl)=C(Nc2ccc(S(=O)(=O)Nc3ccnn3-c3ccccc3)cc2)C(=O)c2ccccc21`, the IC50 in data set [1] is 16.3 µM; in data set [2], 20.7 µM; in data set [3] it was 25.6 µM. The pKa in data set [6] was under 7.91.

Regarding `COc1cccc(NS(=O)(=O)c2ccc(NC3=C(Cl)C(=O)c4ccccc4C3=O)cc2)c1`, the IC50 in data set [1] turned out to be 17 µM; in data set [2] it was 24.6 µM; in data set [3] it was 43.5 µM.

Turning to `Cc1cc(C)nc(NS(=O)(=O)c2ccc(NC3=C(Cl)C(=O)c4ccccc4C3=O)cc2)n1`, the values for the IC50 in data set [1], in data set [2] and in data set [3] were 19 µM, 20.9 µM and 50.2 µM, respectively. In data set [6], this molecule came in with a pKa of under 7.91.

As to `COc1ccccc1NS(=O)(=O)c1ccc(NC2=C(Cl)C(=O)c3ccccc3C2=O)cc1`, the IC50 in data set [1] worked out at 20.8 µM; in data set [2], 24.7 µM; in data set [3], 49.2 µM.

On to `Cc1cccc(NS(=O)(=O)c2ccc(NC3=C(Cl)C(=O)c4ccccc4C3=O)cc2)c1`, for which the results for the IC50 in data set [1], in data set [2] and in data set [3] were 20.8 µM, 55 µM and over 100 µM, respectively.

Turning to `CC(C)C[C@H](NC(=O)[C@H](Cc1ccccc1)NC(=O)c1cnccn1)B(O)O` [BORTEZOMIB], the values for the IC50 in data set [2] and in data set [3] were 7 µM and 0.48 µM, respectively.
